Test results from patent publication US6750332B1, “Salicyl alcohol derivatives” (Cognis Deutschland GmbH & Co. KG, priority 1999, dated 2004).

Experiments:
[1] = system: prostaglandin synthesis in MSCP5 cells; assay: Inhibition of prostaglandin synthesis/release in keratinocytes (14C-arachidonic acid labelling); format: cell-based, mouse; conditions: 10 μm, incubated 2 hours
Description: Inhibition of Prostaglandin Synthesis by Salicin Derivatives (in Mouse or Human Skin Keratinocytes MSCP 5 or HPK II)
The cells were marked for 16 hours with 0.2 μCi ^14C-arachidonic acid ml^−1 medium. The test substances were added in fresh medium with increasing concentrations and incubated for 2 hours. In the Figure, the substances have the following meanings:
In the positive control NS398 (10 μm) for MSCP5 cells, prostaglandin synthesis is reduced by 85%. The prostaglandins were identified by comparison with reference substances and quantified by radiosensitometry. The result is expressed as the average value of three measurement points: MSCP 5: 100%=201 cpm; HPK II: 100%=63 cpm.

[2] = HLB value (ratio of hydrophilic to hydrophobic component); format: physicochemical
Text: The salicyl alcohol derivatives according to the invention have valuable biological activities such as, for example, anti-inflammatory, antipyretic, antiphlogistic or analgesic effects. Thus, prostaglandin synthesis is inhibited to a greater extent with the compounds according to the invention than, for example, with compounds known from the literature, such as salicin, which is associated with the greater lipophilia of the compounds according to the invention. The better effect is dependent inter alia on efficient absorption by the cell membranes of the keratinocytes. The lipid solubility of glycosidic compounds derives from the ratio of hydrophilic component to hydrophobic component which is described by the HLB value. Salicin which has an HLB value of about 12 is more of a water-soluble molecule whereas salicin esters with HLB values of, in some cases, well below 10 are more liposoluble molecules.

[3] = system: mouse MSCP 5 keratinocytes; assay: Cytotoxicity, MTT test in mouse skin keratinocytes; format: cell-based; conditions: concentrations showing inhibition of prostaglandin synthesis, incubation 1.5 or 20 h, confluent or subconfluent
Text: (§1) Cytotoxicity (in Mouse or Human Skin Keratinocytes, MSCP 5 or HPK II)
(§2) The toxicity of the substances was investigated by the MTT Test (Mosmann 1983) in cell cultures. This test is based on the conversion of the yellow tetrazolium salt MTT into the violet dye formazane. The reaction takes place only in living cells through the succinate dehydrogenase located in the inner mitochondrial membranes. On account of the potential use in cosmetic or pharmaceutical products, skin cells (human HPKII or mouse MSCP 5 keratinocytes) were used as the test system. […] The effect of the substances on the keratinocytes was independent of the time (incubation time 1.5 or 20 h), the growth state (confluent or subconfluent) and the organism (mouse or human).
(§3) The substances were dissolved in the culture medium and incubated with the cells for 20 h. The MTT reduction test was then carried out with fresh medium without test components.

[4] = system: human HPKII keratinocytes; assay: Cytotoxicity, MTT test in human skin keratinocytes; format: cell-based; conditions: for toxicity to the cells (MTT test): human HPKII keratinocytes, concentrations showing inhibition of prostaglandin synthesis, incubation 1.5 or 20 h, confluent or subconfluent; for influence on the vitality of skin cells (keratinocytes), FIG. 1: incubated 20 h in culture medium, then MTT reduction test, cell line not given
Text: as §1, §2, §3

[5] = system: COX-2-mRNA in MSCP 5 cells; assay: Northern Blot analysis of COX-2 mRNA in keratinocytes; format: cell-based, mouse; conditions: subconfluent MSCP 5 cells, 500 μM, 45 mins
Description: Influencing of the Transcription Activity of HPK II (Human Skin Keratinocytes)
The release of prostaglandins can be influenced by inhibitors at several levels. Besides inhibition of the catalytic activity of the prostaglandin synthase proteins, another possible effect is on the messenger RNA of the cyclooxygenases. […] As a negative control, the cells were incubated for 45 minutes in medium containing only the solubilizer acetone (0.25%) but no test substance for the same recorded RNA concentration.

| Compound | reduction of prostaglandin synthesis [1] | HLB value [2] | toxicity to the cells (MTT test) [3] | toxicity to the cells (MTT test) [4] | influence on the vitality of skin cells (keratinocytes), FIG. 1 [4] | COX-2-mRNA steady state concentration by comparison with untreated cells [5] |
| --- | --- | --- | --- | --- | --- | --- |
| CS(=O)(=O)Nc1ccc([N+](=O)[O-])cc1OC1CCCCC1 [NS398] | 85% |  |  |  |  |  |
| OCc1ccccc1O[C@@H]1O[C@H](CO)[C@@H](O)[C@H](O)[C@H]1O [Salicin, [2-(hydroxymethyl)phenyl]-β-D-glucopyranoside] |  | about 12 |  |  |  |  |
| O=C(CCc1ccccc1)OC[C@H]1O[C@@H](Oc2ccccc2CO)[C@H](O)[C@@H](O)[C@@H]1O [phenylpropionyl salicin, 6-O-phenylpropionyl-[2-(hydroxymethyl)phenyl]-β-D-glucopyranoside] |  |  | non-toxic | non-toxic | minimal |  |
| O=C(Cc1ccc(O)cc1)OC[C@H]1O[C@@H](Oc2ccccc2CO)[C@H](O)[C@@H](O)[C@@H]1O [p-OH-phenyl acetyl salicin, 6-O-p-OH-phenylacetyl-([2-hydroxymethyl)phenyl]-β-D-glucopyranoside] |  |  | non-toxic | non-toxic | minimal | greatly reduced |
